Measured values as given in US6706663B2, “Herbicidal 3-heterocyclic substituted benzisothiazole and benzisoxazole compounds” (Wyeth, priority 2000, dated 2004).

How the values were obtained:
[1] = test system: AMBEL (Ambrosia artemisifolia); test: Postemergence herbicidal evaluation; format: in vivo, L.; conditions: for AMBEL herbicidal rating: postemergence
Procedure, shortened: (§1)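 Visual 0–9 injury scores versus control plants, covering stand, vigour, malformation, size, chlorosis and general appearance, taken four to five weeks post-spray and averaged over replicate tests. Plants were sprayed at roughly two weeks old and held on greenhouse benches.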

[2] = test system: CASOB (Cassia obtusifolia); test: Postemergence herbicidal evaluation; format: in vivo, L.
Procedure, shortened: as §1

[3] = test system: CHEAL (Chenopodium album); test: Postemergence herbicidal evaluation; format: in vivo, L.; conditions: for CHEAL herbicidal rating: postemergence
Procedure, shortened: as §1

[4] = test system: TRZAWR (Wheat, Winter, cv Riband); test: Postemergence herbicidal evaluation; format: in vivo, Triticum aestivum
Procedure, shortened: as §1

[5] = test system: ABUTH (Abutilon theophrasti); test: Preemergence herbicidal evaluation; format: in vivo, Medic.; conditions: rated 4-5 weeks after treatment
GALAP (Galium aparine) = test: Preemergence herbicidal evaluation; format: in vivo; conditions: rated 4-5 weeks after treatment
Procedure, shortened: (§2)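 Preemergence soil spray, aq. acetone; greenhouse; visual 0–9 score vs control at 4–5 wk.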

[6] = test system: GLXMAW (Soybean, Williams); test: Preemergence herbicidal evaluation; format: in vivo, Glycine max, (L.) Merr. cv Williams; conditions: rated 4-5 weeks after treatment
[7] = test system: TRZAWR (Wheat, Winter, cv Riband); test: Preemergence herbicidal evaluation; format: in vivo, Triticum aestivum; conditions: rated 4-5 weeks after treatment
Procedure, shortened: as §2

ZEAMX (Corn, Field) = test: Preemergence herbicidal evaluation; format: in vivo, Zea mays, L.; conditions: rated 4-5 weeks after treatment
[8] = test system: CYPSE (Cyperus serotinus); test: Flooded paddy, preemergence weed control; format: in vivo, Rottb.; conditions: rated 3-4 weeks after treatment, 0-9 rating scale
Procedure, shortened: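 Seeds or propagules were planted 0.5 cm deep in silt loam and flooded to 1.5–3 cm. Compounds in 50/50 v/v aqueous/acetone were pipetted into the flood water at about 0.0080 to 0.1250 kg/ha. After 3–4 weeks in the greenhouse, effect was rated visually on a 0–9 scale versus untreated control.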

[9] = test system: ECHORC (Echinochloa oryzoides); test: Flooded paddy, postemergence weed control; format: in vivo, Echinochloa oryzoides (Ard.) Fritsch.; conditions: postemergence weeds, rated 3-4 weeks after treatment
Source text: (§3) Results of herbicide evaluation are expressed on a rating scale (0-9). The scale is based upon a visual observation of plant stand, vigor, malformation, size, chlorosis and overall plant appearance as compared with a control.
(§4) Plastic containers containing weeds which are 3 to 5 cm tall and rice seedlings at the 1.5 to 2.5 leaf stage are flooded with water. The water is maintained at 1.5 to 3 cm above the soil surface for the duration of the experiment. Test compounds are applied as aqueous/acetone mixtures 50/50 v/v directly into the flood water to provide the equivalent of about 0.0320 to 0.2500 kg/ha of active ingredient. The treated containers are placed on greenhouse benches and cared for in accordance with conventional greenhouse procedures. Three to four weeks after treatment, the test is terminated and each container is examined and herbicidal effect rated according to the rating system provided in Example 87. The compounds evaluated are identified in Example 87 and plant species used are identified in Example 89.

CYPIR (Cyperus iria) = test: Flooded paddy, postemergence weed control; format: in vivo; conditions: postemergence weeds, rated 3-4 weeks after treatment
Source text: as §3, §4

[10] = test system: CYPSE (Cyperus serotinus); test: Flooded paddy, postemergence weed control; format: in vivo, Rottb.; conditions: postemergence weeds, rated 3-4 weeks after treatment
Source text: as §3, §4

[11] = test system: MOOVA (Monochoria vaginalis); test: Flooded paddy, postemergence weed control; format: in vivo, Presl.; conditions: postemergence weeds, rated 3-4 weeks after treatment
Source text: as §3, §4

[12] = test system: SAGPY (Sagittaria pygmaea); test: Flooded paddy, postemergence weed control; format: in vivo, L.; conditions: postemergence weeds, rated 3-4 weeks after treatment
Source text: as §3, §4

ORYSAT (Rice, Tebonnet) = test: Flooded paddy, post-transplant and postemergence rice tolerance; format: in vivo, Oryza sativa, (L.) Tebonnet; conditions: post-transplant rice, rated 3-4 weeks after treatment
Source text: as §3, §4

[13] = postemergence, rate 0.0320 kg/ha

COC(=O)COc1ccsc1-c1nsc2ccc(-n3c(=O)cc(C(F)(F)F)n(C)c3=O)cc12 [Compound 22, Methyl [(2-[5-[3,6-dihydro-3-methyl-2,6-dioxo-4-(trifluoromethyl)-1(2H)-pyrimidinyl]-1,2-benzisothiazol-3-yl]-3-thienyl]oxy]acetate]
4.0: Postemergence herbicidal rating, AMBEL ([1]; rate 0.0620 kg/ha) | Postemergence herbicidal rating, CHEAL ([3]; rate 0.0620 kg/ha) | Postemergence herbicidal rating, CHEAL ([3]; rate 0.1250 kg/ha) | ABUTH preemergence herbicidal rating ([5]; Rate 0.1250 kg/ha)
1.0: Postemergence herbicidal rating, CASOB ([2]; rate 0.1250 kg/ha) | Postemergence herbicidal rating, CHEAL ([3]; rate 0.0320 kg/ha) | ABUTH preemergence herbicidal rating ([5]; Rate 0.0620 kg/ha) | GALAP preemergence herbicidal rating (GALAP (Galium aparine); Rate 0.2500 kg/ha) | ZEAMX preemergence herbicidal rating (ZEAMX (Corn, Field); Rate 0.2500 kg/ha)
2.0: Postemergence herbicidal rating, AMBEL ([1]; rate 0.0320 kg/ha)
3.5: Postemergence herbicidal rating, TRZAWR ([4]; rate 0.0620 kg/ha)
0.0: Postemergence herbicidal rating, CASOB ([2]; rate 0.0320 kg/ha) | Postemergence herbicidal rating, CASOB ([2]; rate 0.0620 kg/ha) | GALAP preemergence herbicidal rating (GALAP (Galium aparine); Rate 0.0620 kg/ha) | GALAP preemergence herbicidal rating (GALAP (Galium aparine); Rate 0.1250 kg/ha) | GLXMAW preemergence herbicidal rating ([6]; Rate 0.0620 kg/ha) | GLXMAW preemergence herbicidal rating ([6]; Rate 0.1250 kg/ha) | GLXMAW preemergence herbicidal rating ([6]; Rate 0.2500 kg/ha) | TRZAWR preemergence herbicidal rating ([7]; Rate 0.0620 kg/ha) | TRZAWR preemergence herbicidal rating ([7]; Rate 0.1250 kg/ha) | TRZAWR preemergence herbicidal rating ([7]; Rate 0.2500 kg/ha) | ZEAMX preemergence herbicidal rating (ZEAMX (Corn, Field); Rate 0.0620 kg/ha) | ZEAMX preemergence herbicidal rating (ZEAMX (Corn, Field); Rate 0.1250 kg/ha) | herbicidal rating, CYPSE ([8]; rate 0.0320 kg/ha) | herbicidal rating, CYPSE ([8]; rate 0.1250 kg/ha) | herbicide rating (0-9) ECHORC ([9]; 0.0320 kg/ha into flood water) | herbicide rating (0-9) ECHORC ([9]; 0.0620 kg/ha into flood water) | herbicide rating (0-9) ECHORC ([9]; 0.1250 kg/ha into flood water) | herbicide rating (0-9) CYPIR (CYPIR (Cyperus iria); 0.0320 kg/ha into flood water) | herbicide rating (0-9) CYPIR (CYPIR (Cyperus iria); 0.0620 kg/ha into flood water) | herbicide rating (0-9) CYPIR (CYPIR (Cyperus iria); 0.1250 kg/ha into flood water) | herbicide rating (0-9) CYPSE ([10]; 0.0320 kg/ha into flood water) | herbicide rating (0-9) CYPSE ([10]; 0.0620 kg/ha into flood water) | herbicide rating (0-9) CYPSE ([10]; 0.1250 kg/ha into flood water) | herbicide rating (0-9) MOOVA ([11]; 0.0320 kg/ha into flood water) | herbicide rating (0-9) MOOVA ([11]; 0.0620 kg/ha into flood water) | herbicide rating (0-9) MOOVA ([11]; 0.1250 kg/ha into flood water) | herbicide rating (0-9) SAGPY ([12]; 0.0320 kg/ha into flood water) | herbicide rating (0-9) SAGPY ([12]; 0.0620 kg/ha into flood water) | herbicide rating (0-9) SAGPY ([12]; 0.1250 kg/ha into flood water) | herbicide rating (0-9) ORYSAT (rice tolerance) (ORYSAT (Rice, Tebonnet); 0.0320 kg/ha into flood water) | herbicide rating (0-9) ORYSAT (rice tolerance) (ORYSAT (Rice, Tebonnet); 0.0620 kg/ha into flood water) | herbicide rating (0-9) ORYSAT (rice tolerance) (ORYSAT (Rice, Tebonnet); 0.1250 kg/ha into flood water)
4.5: Postemergence herbicidal rating, TRZAWR ([4]; rate 0.1250 kg/ha)
6.0: Postemergence herbicidal rating, AMBEL ([1]; rate 0.1250 kg/ha)
5.0: ABUTH preemergence herbicidal rating ([5]; Rate 0.2500 kg/ha)
2.5: Postemergence herbicidal rating, TRZAWR ([4]; rate 0.0320 kg/ha)

Cn1c(C(F)(F)F)cc(=O)n(-c2cc3c(C4OCCO4)nsc3cc2F)c1=O [Compound 61, 3-[3-(1,3-dioxolan-2-yl)-6-fluoro-1,2-benzisothiazol-5-yl]-1-methyl-6-(trifluoromethyl)uracil]
9.0: AMBEL herbicidal rating ([1]; rate 0.0320 kg/ha) | AMBEL herbicidal rating ([1]; rate 0.0620 kg/ha) | CASOB herbicidal rating [2, 13] | CHEAL herbicidal rating ([3]; rate 0.0320 kg/ha) | CHEAL herbicidal rating ([3]; rate 0.0620 kg/ha) | Preemergence herbicidal rating ABUTH ([5]; Rate 0.0160 kg/ha) | Preemergence herbicidal rating ABUTH ([5]; Rate 0.0320 kg/ha) | Preemergence herbicidal rating GALAP (GALAP (Galium aparine); Rate 0.0320 kg/ha) | Preemergence herbicidal rating GLXMAW ([6]; Rate 0.0160 kg/ha) | Preemergence herbicidal rating GLXMAW ([6]; Rate 0.0320 kg/ha) | Preemergence herbicidal rating TRZAWR ([7]; Rate 0.0320 kg/ha) | Preemergence herbicidal rating ZEAMX (ZEAMX (Corn, Field); Rate 0.0320 kg/ha) | herbicidal rating, CYPSE ([8]; rate 0.0320 kg/ha) | herbicidal rating, CYPSE ([8]; rate 0.1250 kg/ha) | herbicide rating (0-9) ECHORC ([9]; 0.0320 kg/ha into flood water) | herbicide rating (0-9) ECHORC ([9]; 0.0620 kg/ha into flood water) | herbicide rating (0-9) ECHORC ([9]; 0.1250 kg/ha into flood water) | herbicide rating (0-9) CYPIR (CYPIR (Cyperus iria); 0.0320 kg/ha into flood water) | herbicide rating (0-9) CYPIR (CYPIR (Cyperus iria); 0.0620 kg/ha into flood water) | herbicide rating (0-9) CYPIR (CYPIR (Cyperus iria); 0.1250 kg/ha into flood water) | herbicide rating (0-9) CYPSE ([10]; 0.0320 kg/ha into flood water) | herbicide rating (0-9) CYPSE ([10]; 0.0620 kg/ha into flood water) | herbicide rating (0-9) CYPSE ([10]; 0.1250 kg/ha into flood water) | herbicide rating (0-9) MOOVA ([11]; 0.0320 kg/ha into flood water) | herbicide rating (0-9) MOOVA ([11]; 0.0620 kg/ha into flood water) | herbicide rating (0-9) MOOVA ([11]; 0.1250 kg/ha into flood water) | herbicide rating (0-9) SAGPY ([12]; 0.1250 kg/ha into flood water) | herbicide rating (0-9) ORYSAT (rice tolerance) (ORYSAT (Rice, Tebonnet); 0.0320 kg/ha into flood water) | herbicide rating (0-9) ORYSAT (rice tolerance) (ORYSAT (Rice, Tebonnet); 0.0620 kg/ha into flood water) | herbicide rating (0-9) ORYSAT (rice tolerance) (ORYSAT (Rice, Tebonnet); 0.1250 kg/ha into flood water)
6.0: herbicide rating (0-9) SAGPY ([12]; 0.0320 kg/ha into flood water)
8.3: Preemergence herbicidal rating ZEAMX (ZEAMX (Corn, Field); Rate 0.0160 kg/ha)
8.5: Preemergence herbicidal rating GALAP (GALAP (Galium aparine); Rate 0.0160 kg/ha) | Preemergence herbicidal rating TRZAWR ([7]; Rate 0.0160 kg/ha)
5.5: TRZAWR herbicidal rating [4, 13]
0.0: Preemergence herbicidal rating ABUTH ([5]; Rate 0.0002 kg/ha) | Preemergence herbicidal rating GALAP (GALAP (Galium aparine); Rate 0.0002 kg/ha) | Preemergence herbicidal rating GLXMAW ([6]; Rate 0.0002 kg/ha) | Preemergence herbicidal rating TRZAWR ([7]; Rate 0.0002 kg/ha) | Preemergence herbicidal rating ZEAMX (ZEAMX (Corn, Field); Rate 0.0002 kg/ha)
8.0: herbicide rating (0-9) SAGPY ([12]; 0.0620 kg/ha into flood water)
